Reference: PubChem BioAssay AID2060912 (Molecular Pharmacology Branch, DTP, NCI, 2025)
pIC50: −log10 of the molar value.

Tested on: HUVEC/MSC spheroids viability
Experiment: Human HUVEC/MSC cell line growth inhibition [KRAS2];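 on viability, T/C: percent of DMSO vehicle control luminescence so 100% = untreated viability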
Conditions: for viability, T/C: stronger effect = lower value
In short: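 HUVEC + hMSC stromal spheroids only, no malignant cells; 37 °C, 5% CO2. Drugs singly and in pairs, half-log series down from clinical Cmax (max 10 microM if Cmax undetermined).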

In the case of O=C(c1cc(Cc2n[nH]c(=O)c3ccccc23)ccc1F)N1CCN(C(=O)C2CC2)CC1, the viability, T/C (compound 0.316 µM) was 90.8% [middle of 5 runs], the viability, T/C (compound 1 µM) was 89.3% [middle of 5 runs] and the viability, T/C (compound 10 µM) was 95.3% [middle of 5 runs]. For the same compound, the pIC50 (curve of compound) was < 5.00.

With O=C(c1cc(Cc2n[nH]c(=O)c3ccccc23)ccc1F)N1CCN(C(=O)C2CC2)CC1 + C=CC(=O)N1CCN(c2nc(OCC3CCCN3C)nc3c2CCN(c2cccc4cccc(C)c24)C3)CC1CC#N the pIC50 (curve of first compound, second compound 0.00949 µM) was < 5.00, the pIC50 (curve of first compound, second compound 0.03 µM) was < 5.00 and the pIC50 (curve of first compound, second compound 0.0949 µM) was < 5.00. For the same compound, the pIC50 (curve of first compound, second compound 0.3 µM) was < 5.00, the pIC50 (curve of first compound, second compound 0.949 µM) was < 5.00 and the pIC50 (curve of first compound, second compound 3 µM) was < 5.00. It also gave a viability, T/C (second compound 0.00949 µM, first compound 0.0316 µM) of 80.8%, a viability, T/C (second compound 0.00949 µM, first compound 0.1 µM) of 101% and a viability, T/C (second compound 0.00949 µM, first compound 0.316 µM) of 89.4%. It also gave a viability, T/C (second compound 0.00949 µM, first compound 1 µM) of 82.3%, a viability, T/C (second compound 0.00949 µM, first compound 3.16 µM) of 80.9% and a viability, T/C (second compound 0.00949 µM, first compound 10 µM) of 112%. It also gave a viability, T/C (second compound 0.03 µM, first compound 0.0316 µM) of 78.2%, a viability, T/C (second compound 0.03 µM, first compound 0.1 µM) of 96.2% and a viability, T/C (second compound 0.03 µM, first compound 0.316 µM) of 98.7%. The viability, T/C (second compound 0.03 µM, first compound 1 µM) was 81.2%, the viability, T/C (second compound 0.03 µM, first compound 3.16 µM) was 103% and the viability, T/C (second compound 0.03 µM, first compound 10 µM) was 83.7%. It also gave a viability, T/C (second compound 0.0949 µM, first compound 0.0316 µM) of 91.8%, a viability, T/C (second compound 0.0949 µM, first compound 0.1 µM) of 87.8% and a viability, T/C (second compound 0.0949 µM, first compound 0.316 µM) of 77.2%. For the same compound, the viability, T/C (second compound 0.0949 µM, first compound 1 µM) was 101%, the viability, T/C (second compound 0.0949 µM, first compound 3.16 µM) was 88.4% and the viability, T/C (second compound 0.0949 µM, first compound 10 µM) was 100%. The viability, T/C (second compound 0.3 µM, first compound 0.0316 µM) was 71%, the viability, T/C (second compound 0.3 µM, first compound 0.1 µM) was 91.9% and the viability, T/C (second compound 0.3 µM, first compound 0.316 µM) was 86.1%. It also gave a viability, T/C (second compound 0.3 µM, first compound 1 µM) of 73.7%, a viability, T/C (second compound 0.3 µM, first compound 3.16 µM) of 82.8% and a viability, T/C (second compound 0.3 µM, first compound 10 µM) of 81.8%. For the same compound, the viability, T/C (second compound 0.949 µM, first compound 0.0316 µM) was 68.4%, the viability, T/C (second compound 0.949 µM, first compound 0.1 µM) was 84.9% and the viability, T/C (second compound 0.949 µM, first compound 0.316 µM) was 84.1%. For the same compound, the viability, T/C (second compound 0.949 µM, first compound 1 µM) was 88.8%, the viability, T/C (second compound 0.949 µM, first compound 3.16 µM) was 89.8% and the viability, T/C (second compound 0.949 µM, first compound 10 µM) was 85.2%. For the same compound, the viability, T/C (second compound 3 µM, first compound 0.0316 µM) was 91.5%, the viability, T/C (second compound 3 µM, first compound 0.1 µM) was 79.5% and the viability, T/C (second compound 3 µM, first compound 0.316 µM) was 111%. The viability, T/C (second compound 3 µM, first compound 1 µM) was 102%, the viability, T/C (second compound 3 µM, first compound 3.16 µM) was 107% and the viability, T/C (second compound 3 µM, first compound 10 µM) was 89.7%.

Compound CC(C)n1nc(-c2ccc3oc(N)nc3c2)c2c(N)ncnc21 + CC1OCC2(CCN(c3cnc(Sc4ccnc(N)c4Cl)c(N)n3)CC2)C1N has a pIC50 (curve of first compound, second compound 0.0316 µM) of 7.83, a pIC50 (curve of first compound, second compound 0.1 µM) of 8.08 and a pIC50 (curve of first compound, second compound 0.316 µM) of 8.51. For the same compound, the pIC50 (curve of first compound, second compound 1 µM) was 8.62, the pIC50 (curve of first compound, second compound 3.16 µM) was 8.79 and the pIC50 (curve of first compound, second compound 10 µM) was > 9.50. For the same compound, the viability, T/C (second compound 0.0316 µM, first compound 0.000316 µM) was 108%, the viability, T/C (second compound 0.0316 µM, first compound 0.001 µM) was 95.2% and the viability, T/C (second compound 0.0316 µM, first compound 0.00316 µM) was 63.9%. It also gave a viability, T/C (second compound 0.0316 µM, first compound 0.01 µM) of 53.5%, a viability, T/C (second compound 0.0316 µM, first compound 0.0316 µM) of 50.4% and a viability, T/C (second compound 0.0316 µM, first compound 0.1 µM) of 43.9%. For the same compound, the viability, T/C (second compound 0.1 µM, first compound 0.000316 µM) was 100%, the viability, T/C (second compound 0.1 µM, first compound 0.001 µM) was 93.8% and the viability, T/C (second compound 0.1 µM, first compound 0.00316 µM) was 63.3%. For the same compound, the viability, T/C (second compound 0.1 µM, first compound 0.01 µM) was 49.6%, the viability, T/C (second compound 0.1 µM, first compound 0.0316 µM) was 43.6% and the viability, T/C (second compound 0.1 µM, first compound 0.1 µM) was 36.4%. For the same compound, the viability, T/C (second compound 0.316 µM, first compound 0.000316 µM) was 85%, the viability, T/C (second compound 0.316 µM, first compound 0.001 µM) was 81.3% and the viability, T/C (second compound 0.316 µM, first compound 0.00316 µM) was 49.2%. The viability, T/C (second compound 0.316 µM, first compound 0.01 µM) was 47.5%, the viability, T/C (second compound 0.316 µM, first compound 0.0316 µM) was 42.6% and the viability, T/C (second compound 0.316 µM, first compound 0.1 µM) was 35.6%. It also gave a viability, T/C (second compound 1 µM, first compound 0.000316 µM) of 83.8%, a viability, T/C (second compound 1 µM, first compound 0.001 µM) of 71.2% and a viability, T/C (second compound 1 µM, first compound 0.00316 µM) of 43.4%. For the same compound, the viability, T/C (second compound 1 µM, first compound 0.01 µM) was 33.1%, the viability, T/C (second compound 1 µM, first compound 0.0316 µM) was 33.3% and the viability, T/C (second compound 1 µM, first compound 0.1 µM) was 28.9%. For the same compound, the viability, T/C (second compound 3.16 µM, first compound 0.000316 µM) was 62.6%, the viability, T/C (second compound 3.16 µM, first compound 0.001 µM) was 60% and the viability, T/C (second compound 3.16 µM, first compound 0.00316 µM) was 36.5%. It also gave a viability, T/C (second compound 3.16 µM, first compound 0.01 µM) of 27.7%, a viability, T/C (second compound 3.16 µM, first compound 0.0316 µM) of 22% and a viability, T/C (second compound 3.16 µM, first compound 0.1 µM) of 23.1%. The viability, T/C (second compound 10 µM, first compound 0.000316 µM) was 48.2%, the viability, T/C (second compound 10 µM, first compound 0.001 µM) was 41.8% and the viability, T/C (second compound 10 µM, first compound 0.00316 µM) was 22.3%. The viability, T/C (second compound 10 µM, first compound 0.01 µM) was 16.2%, the viability, T/C (second compound 10 µM, first compound 0.0316 µM) was 16.8% and the viability, T/C (second compound 10 µM, first compound 0.1 µM) was 10.7%.
